From US9387183B2, “Method of treating diabetes-related impaired wound healing” (KUWAIT UNIVERSITY, priority 2011, dated 2016)

What was measured:
[1] = Global physiological characteristics of diabetic rats (weights, plasma and wound fluid hormones, oxidative stress); type: in vivo, rat; settings: for Plasma F2 Isoprostanes: index of oxidative stress
Experimental: All animal procedures were performed in accordance with the NIH Guidance for the Care and Use of Laboratory Animals. The current study used the mildly hyperglycemic, non-obese Goto-Kakizaki (GK) spontaneously diabetic rats, produced by selective inbreeding of glucose-intolerant Wistar rats as a genetic model for type 2 diabetes. Weight-matched female Wistar rats (Kuwait University breeding colony) served as controls. All animals were maintained under standard conditions with 12 hours on/off light cycle, commercial diet, and water ad libitum. Rats destined for various experimental manipulations, including wounding, insulin sensitivity, and drug treatment, were initially matched with regard to body weight (e.g., 230 to 250 g), plasma levels of glucose, free fatty acids and insulin. These indices are commonly used to reflect the severity of the diabetic state.
Cycling control rats in proestrus were used as a reference group. Similarly, the diabetic rats were also treated with PEG-sTNF-RI, a soluble long-lasting form of TNF-RI that neutralizes TNF-α action. […] All of the treatment regimens used with the diabetic rats were given for at least three weeks before wound initiation, and this form of treatment continued during the course of wound healing.
Animals were sacrificed at 3 and 7 days post-wounding. An area that included the complete epithelial margins was excised, and the wounds were bisected and processed so that the mid-point of the wound was sectioned and compared between groups. The resulting specimens were either fixed in 4% paraformaldehyde in phosphate-sucrose buffer and analyzed histologically, or flash frozen in liquid nitrogen and stored at −80° C. prior to biochemical analysis, or embedded in Optimum Cutting Temperature (OCT) compound and immediately frozen in liquid nitrogen for immunofluorescence analysis. It is worthy of note that the number of wounds used for most of the aforementioned studies were in the range of 48 to 60 wounds per treatment. Some parameters related to sex hormones and oxidative stress were measured in serum or wound fluids, which were collected on day 7 post-wounding from subcutaneously inserted stainless steel mesh chambers.

wound macrophage markers = settings: diabetic wounds
[2] = tested on: TGF-β1-Smad signaling pathway; test: TGF-β/Smad-dependent signaling in diabetic wounds; type: in vivo, rat; settings: wounds from treated diabetic rats, day 7; for TGF-βRII expression: FIG. 3D; for phospho-Smad2: FIG. 3E; for Smad7 levels: FIG. 3F
Experimental: Samples of the total cellular and nuclear extracts were subjected to protein determinations using the Bicinchoninic Acid Protein Assay Kit (Pierce). For western blotting, an equal volume of 2×SDS sample buffer was added, and the samples were denatured by boiling for 5 minutes. Proteins were applied to SDS-polyacrylamide gel electrophoresis (SDS-PAGE) and transferred to an Immobilon polyvinylidene difluoride membrane (BioRad). The membranes were blocked with tris buffered saline containing 0.05% Tween 20 and 5% skim milk, and then treated with a number of primary antibodies, including Smad2/p-Smad2 (Cell Signaling), Smad7 (Imgenex), and β3-integrin (Santa Cruz). Protein bands were visualized by chemiluminescence (Pierce), and band intensity was determined using Bio-Rad densitometer. Unless otherwise specified, β-actin was used to standardize the quantity of sample protein for all Western blotting analyses.

[3] = tested on: rheumatoid arthritis in rat models; settings: subcutaneous administration, dose of 0.3 mg/kg; cited from earlier work
GK diabetic rats [4] = test: Full-thickness excisional wound healing in GK diabetic rats (closure, re-epithelialization, ECM deposition); settings: diabetic wounds
NF-κB = NF-κB p65-DNA binding activity in wounds; type: in vivo, rat; settings: wounds from treated diabetic rats; FIG. 5G
Experimental: To assess protein expression and NF-κB activation, frozen liquid nitrogen powdered wounded tissues or serum starved RDFs/HDFs were homogenized on ice in a RIPA buffer (50 mM Tris pH 7.4, 150 mM NaCl, 10 mM EDTA, 2 mM sodium vanadate, 150 mM sodium fluoride, 0.5% sodium deoxycholate, 1% Triton X-100, and a cocktail of protease inhibitors) for total cellular proteins, or with a hypotonic buffer A (10 mM HEPES pH 7.9, 10 mM KCl, 2 mM MgCl2, 0.1 mM EDTA, 1.0 mM DTT, 0.5 mM PMSF, 20 mM NaF, 1 mM sodium orthovanadate and a cocktail of protease inhibitors) for the nuclear protein extraction. […] Similarly, the hypotonic buffer-dependent homogenates (500 μl) were incubated on ice for 20 minutes, after which 50 μl of 10% NP-40 was added. The mixture was vortexed and centrifuged (5000×g, 1 min, 4° C.). […]
A quantitative analysis of p65-DNA binding activity was performed on the nuclear protein extracts using the ELISA-based TransAM NFκB Transcription Factor Assay Kit (Active Motif) according to the manufacturer's instruction. […] The activated transcription factor, specifically bound to the immobilized oligonucleotide, was detected using an antibody directed against NF-κB and a secondary antibody conjugated to horseradish peroxidase. The developing solution was then added, and the OD (450-665 mm) was measured using a microplate reader (Thermo Scientific). Results were expressed as % of control.

GK diabetic rats [5] = test: Insulin sensitivity clamp (Rapid Insulin Sensitivity Test) in female diabetic rats
[6] = GK diabetic rats treated, plasma, mean±SEM
[7] = GK diabetic rats treated, wound fluid day 7 post-wounding, mean±SEM
[8] = female GK diabetic rats treated, mean±SEM

Compound: C[C@]12CC[C@@H]3c4ccc(O)cc4CC[C@H]3[C@@H]1CC[C@@H]2O [E2, β-estradiol]
- Weight (g) Uterus ([1]; GK diabetic rats treated, mean±SEM): 0.41 ± 0.04 g
- Plasma F2 Isoprostanes [1, 6]: 47 ± 6.6 pg/mL
- Plasma Testosterone [1, 6]: 849 ± 85 pg/mL
- Wound fluid F2 Isoprostanes [1, 7]: 43 ± 4.4 pg/mL
- Wound fluid Testosterone [1, 7]: 456 ± 47 pg/mL
- diabetes-related abnormalities (testosterone, F2 isoprostanes, uterine weights, plasma and wound E2 levels) ([1]; GK diabetic rats, Table 1): Most of the aforementioned abnormalities were normalized
- up-regulation in M1 macrophage-derived markers, together with the resolution of inflammation within the diabetic wound microenvironment (wound macrophage markers; FIG. 5C-E): normalized
- diabetes-related decrease in the expression of wound M2 macrophage phenotype (wound macrophage markers; FIGS. 2F, 2G, 3A, 3B, 5F): partial reversal
- TGF-βRII expression [2]: augmented
- phospho-Smad2 [2]: augmented
- Smad7 levels [2]: decreased

Compound: TNFR1: soluble pegylated long-lasting form of TNF-RI (Amgen) that neutralizes TNF-α action
- Plasma F2 Isoprostanes [1, 6]: 69 ± 8.4 pg/mL
- Wound fluid F2 Isoprostanes [1, 7]: 59 ± 5.2 pg/mL
- inflammatory reaction of rheumatoid arthritis [3]: appears to limit the inflammatory reaction
- pro-resolving/M2 polarizing effect (wound macrophage markers): recapitulated
- deposition of ECM (GK diabetic rats [4]; FIG. 2A-D): significant improvement
- healing process, at the macroscopic and microscopic levels (GK diabetic rats [4]; FIGS. 1A and B): significant improvement
- NF-κB activity (NF-κB): significant decrease
- TGF-βRII expression [2]: augmented
- phospho-Smad2 [2]: augmented
- Smad7 levels [2]: decreased
- effect on carbohydrate tolerance (GK diabetic rats [5]; diabetic animals, Table 2): favorable effect
- hyperinsulinemic state (GK diabetic rats [5]; diabetic animals, Table 2): partially ameliorated
- target tissue sensitivity to insulin (increase in glucose infusion rate) (GK diabetic rats [5]; diabetic animals, Table 2): significantly improved
- GIR: Glucose infusion rate (GK diabetic rats [5]; female GK diabetic rats treated, clamp, mean±SEM): 18.53 ± 1.49 mg/min/kg body wt
- FBG: Fasting blood glucose (GK diabetic rats [5]; [8]): 125 ± 17 mg/dL
- FPI: Fasting plasma insulin (GK diabetic rats [5]; [8]): 0.68 ± 0.05 ng/mL
- PCPI: Post clamp plasma insulin (GK diabetic rats [5]; [8]): 4.61 ± 0.4 ng/mL
